Assay results from ChEMBL document CHEMBL3046295, “Quantitative structure activity relationship (QSAR) studies of a series of 2,5-disubstituted-1,3,4-oxadiazole derivatives as biologically potential compounds” (2011).
Converted amounts (≈) assume the structure as drawn.

What was measured:
Staphylococcus aureus = experiment: Antibacterial activity against Staphylococcus aureus; format: functional; conditions: for MIC: Staphylococcus aureus
Escherichia coli = experiment: Antibacterial activity against Escherichia coli; format: functional; conditions: for MIC: Escherichia coli

MIC (Staphylococcus aureus)	MIC (Escherichia coli)	SMILES	-logMIC (Staphylococcus aureus)	-logMIC (Escherichia coli)
135 µg/mL (≈ 389 µM)	100 µg/mL (≈ 288 µM)	O=C(CSc1nnc(-c2cccnc2)o1)Nc1ccc(Cl)cc1	6.41	6.5403
140 µg/mL (≈ 409 µM)	150 µg/mL (≈ 438 µM)	COc1ccc(NC(=O)CSc2nnc(-c3cccnc3)o2)cc1	6.3879	6.3579
115 µg/mL (≈ 270 µM)	110 µg/mL (≈ 259 µM)	O=C(CCSc1nnc(Cn2nnc3ccccc32)o1)Nc1ccc([N+](=O)[O-])cc1	6.5677	6.587
120 µg/mL (≈ 267 µM)	90 µg/mL (≈ 200 µM)	O=C(CCSc1nnc(Cn2nnc3ccccc32)o1)Nc1c(Cl)cccc1Cl	6.5731	6.698
110 µg/mL (≈ 269 µM)	100 µg/mL (≈ 245 µM)	Cc1cccc(C)c1NC(=O)CCSc1nnc(Cn2nnc3ccccc32)o1	6.5693	6.6107
110 µg/mL (≈ 245 µM)	120 µg/mL (≈ 267 µM)	O=C(CCSc1nnc(Cn2nnc3ccccc32)o1)Nc1ccc(Cl)c(Cl)c1	6.6109	6.5731
95 µg/mL (≈ 325 µM)	115 µg/mL (≈ 393 µM)	CCCCNC(=O)CSc1nnc(-c2cccnc2)o1	6.4877	6.4047
170 µg/mL (≈ 494 µM)	150 µg/mL (≈ 436 µM)	O=C(CCSc1nnc(-c2cccnc2)o1)Nc1ccc(F)cc1	6.3061	6.3605
140 µg/mL (≈ 393 µM)	100 µg/mL (≈ 281 µM)	COc1ccc(NC(=O)CCSc2nnc(-c3cccnc3)o2)cc1	6.4053	6.5514
100 µg/mL (≈ 269 µM)	120 µg/mL (≈ 323 µM)	O=C(CCSc1nnc(-c2cccnc2)o1)Nc1ccc([N+](=O)[O-])cc1	6.5694	6.4902
150 µg/mL (≈ 370 µM)	165 µg/mL (≈ 407 µM)	O=C(CCSc1nnc(-c2cccnc2)o1)Nc1ccc(Br)cc1	–	–
120 µg/mL (≈ 315 µM)	110 µg/mL (≈ 289 µM)	Cc1ccc(NC(=O)CSc2nnc(Cn3nnc4ccccc43)o2)cc1	6.5006	6.5384
140 µg/mL (≈ 340 µM)	115 µg/mL (≈ 280 µM)	O=C(CSc1nnc(Cn2nnc3ccccc32)o1)Nc1ccc([N+](=O)[O-])cc1	6.4677	6.5531
100 µg/mL (≈ 260 µM)	85 µg/mL (≈ 221 µM)	O=C(CSc1nnc(Cn2nnc3ccccc32)o1)Nc1ccc(F)cc1	6.5843	6.6549
130 µg/mL (≈ 394 µM)	125 µg/mL (≈ 378 µM)	O=C(CSc1nnc(-c2cccnc2)o1)Nc1ccc(F)cc1	6.4046	6.4216

More lines, now with the values behind:

SMILES	MIC (Staphylococcus aureus)	MIC (Escherichia coli)	-logMIC (Staphylococcus aureus)	-logMIC (Escherichia coli)
O=C(CSc1nnc(Cn2nnc3ccccc32)o1)Nc1ccc(Cl)cc1	85 µg/mL (≈ 212 µM)	100 µg/mL (≈ 249 µM)	6.6737	6.6031
O=C(CSc1nnc(-c2cccnc2)o1)N1CCCCC1	155 µg/mL (≈ 509 µM)	180 µg/mL (≈ 591 µM)	–	6.229
O=C(CSc1nnc(-c2cccnc2)o1)Nc1ccc(Br)cc1	125 µg/mL (≈ 319 µM)	90 µg/mL (≈ 230 µM)	6.4953	6.6379
COc1ccc(NC(=O)CSc2nnc(Cn3nnc4ccccc43)o2)cc1	125 µg/mL (≈ 315 µM)	120 µg/mL (≈ 303 µM)	6.5008	6.5185
O=C(CSc1nnc(Cn2nnc3ccccc32)o1)Nc1ccc(Br)cc1	110 µg/mL (≈ 247 µM)	75 µg/mL (≈ 168 µM)	6.607	6.7733
O=C(CSc1nnc(Cn2nnc3ccccc32)o1)Nc1c(Cl)cccc1Cl	115 µg/mL (≈ 264 µM)	80 µg/mL (≈ 184 µM)	6.5778	6.7354
Cc1cccc(C)c1NC(=O)CSc1nnc(Cn2nnc3ccccc32)o1	130 µg/mL (≈ 330 µM)	120 µg/mL (≈ 304 µM)	6.4816	6.5163
O=C(CSc1nnc(Cn2nnc3ccccc32)o1)Nc1ccc(Cl)c(Cl)c1	125 µg/mL (≈ 287 µM)	90 µg/mL (≈ 207 µM)	6.5416	6.6842
O=C(CCSc1nnc(Cn2nnc3ccccc32)o1)Nc1ccc(Cl)cc1	120 µg/mL (≈ 289 µM)	120 µg/mL (≈ 289 µM)	6.5378	6.5378
Cc1ccc(NC(=O)CCSc2nnc(Cn3nnc4ccccc43)o2)cc1	110 µg/mL (≈ 279 µM)	125 µg/mL (≈ 317 µM)	6.5541	6.4986
O=C(CCSc1nnc(Cn2nnc3ccccc32)o1)Nc1ccc(F)cc1	105 µg/mL (≈ 264 µM)	80 µg/mL (≈ 201 µM)	6.5787	6.6968
COc1ccc(NC(=O)CCSc2nnc(Cn3nnc4ccccc43)o2)cc1	100 µg/mL (≈ 244 µM)	100 µg/mL (≈ 244 µM)	6.6128	6.6128
O=C(CCSc1nnc(Cn2nnc3ccccc32)o1)Nc1ccc(Br)cc1	75 µg/mL (≈ 163 µM)	100 µg/mL (≈ 218 µM)	6.7868	6.6618
O=C(CSc1nnc(-c2cccnc2)o1)Nc1ccc([N+](=O)[O-])cc1	150 µg/mL (≈ 420 µM)	145 µg/mL (≈ 406 µM)	6.3766	6.3913
CCCNC(=O)CSc1nnc(-c2cccnc2)o1	100 µg/mL (≈ 359 µM)	125 µg/mL (≈ 449 µM)	6.444	6.3471
O=C(CSc1nnc(-c2cccnc2)o1)N1CCOCC1	120 µg/mL (≈ 392 µM)	110 µg/mL (≈ 359 µM)	6.4065	6.4443
O=C(CCSc1nnc(-c2cccnc2)o1)Nc1ccc(Cl)cc1	100 µg/mL (≈ 277 µM)	80 µg/mL (≈ 222 µM)	6.5575	6.2349
O=C(CCSc1nnc(-c2cccnc2)o1)Nc1c(Cl)cccc1Cl	95 µg/mL (≈ 240 µM)	170 µg/mL (≈ 430 µM)	6.4877	6.4638
CCCNC(=O)CCSc1nnc(-c2cccnc2)o1	115 µg/mL (≈ 393 µM)	110 µg/mL (≈ 376 µM)	6.4445	6.4069
CCCCNC(=O)CCSc1nnc(-c2cccnc2)o1	120 µg/mL (≈ 392 µM)	125 µg/mL (≈ 408 µM)	6.4246	–
O=C(CCSc1nnc(-c2cccnc2)o1)N1CCOCC1	140 µg/mL (≈ 437 µM)	130 µg/mL (≈ 406 µM)	6.3396	6.3718
